Assay results from patent US20210062159A1, “CELL AGGREGATION PROMOTER” (KANEKA CORPORATION, priority 2017, published 2021).

Key:
Assay type in all cases: cell-based
[1] = tested on: human iPS cells (TkDN4-M cell lines); test: Cell yield at Day 5 of suspension culture (trypan blue, hemocytometer); details: Day 5 of culture, aggregates formed with 10 μM CCG-1423, FIG. 5
Procedure: A cell suspension was prepared in the same manner as in Example 2, and separately, the cell aggregation promoter was adjusted so that the final concentration of CCG-1423 (same as above) was 4.55 mg/mL (10 mM), then the adjusted cell aggregation promoter was added to the cell suspension so that the final concentration of CCG-1423 was 10 μM, and the cells were seeded at a ratio of 4 mL/well in a 6-well plate for suspension culture (Sumitomo Bakelite Co., Ltd.). […] While 208 cell aggregates in images obtained at Day 1 of culture being observed and compared using a micrograph scale, the width (referred to as “φ”) of the widest portion of each cell aggregate was measured, distribution thereof was examined, and average±standard deviation was calculated. The concentration of glucose contained in the culture supernatant collected at the time of culture medium exchange was measured with biosensor BF-5iD (Prince Measuring Equipment Co., Ltd.) to calculate glucose consumption.
In addition, at Day 5 of culture, cell aggregates were collected, dispersed with Accutase, and then suspended in Essential 8™ culture medium containing 5 mg/mL BSA. A portion of this cell suspension was stained with trypan blue and the number of cells was counted. […] The resulting cells were analyzed on FACSVerse. […]
Cell yields were also measured at Day 5 of culture. […]

[2] = tested on: human iPS cells (TkDN4-M cell lines); test: Cell aggregate formation and size (widest portion) in swirling suspension culture, phase contrast microscopy; details: for Number of cell aggregates by size / Percentage of cell aggregates by size: CCG-1423 added
Procedure: A cell suspension was prepared in the same manner as in Example 2, and separately, the cell aggregation promoter was adjusted so that the final concentration of CCG-1423 (same as above) was 4.55 mg/mL (10 mM), then the adjusted cell aggregation promoter was added to the cell suspension so that the final concentration of CCG-1423 was 10 μM, and the cells were seeded at a ratio of 4 mL/well in a 6-well plate for suspension culture (Sumitomo Bakelite Co., Ltd.). The cell-seeded plate was subjected to a swirling culture on a rotary shaker (OPTIMA, Inc.) at a speed of 90 rpm along the horizontal plane to draw a circle with a swirling width (diameter) of 25 mm and cells were cultured in suspension under a condition at 5% CO2 and 37° C. After the next day of culture (Day 1 of culture), the culture medium was exchanged daily for a fresh culture medium (Essential 8™ culture medium containing BSA (Wako Pure Chemical Industries, Ltd.) at a final concentration of 5 mg/mL), and the culture continued until 5 days after the start of culture. A control test was conducted by culturing in the same way except for using CCG-1423 and Y-27632 free culture media. Images were obtained by phase contrast microscopy every day during culture. While 208 cell aggregates in images obtained at Day 1 of culture being observed and compared using a micrograph scale, the width (referred to as “φ”) of the widest portion of each cell aggregate was measured, distribution thereof was examined, and average±standard deviation was calculated. The concentration of glucose contained in the culture supernatant collected at the time of culture medium exchange was measured with biosensor BF-5iD (Prince Measuring Equipment Co., Ltd.) to calculate glucose consumption.

[3] = tested on: human iPS cells (TkDN4-M cell lines); test: Glucose consumption of suspension culture (biosensor BF-5iD); details: Day 1 to Day 5 of culture, CCG-1423 added condition, FIG. 4
Procedure: A cell suspension was prepared in the same manner as in Example 2, and separately, the cell aggregation promoter was adjusted so that the final concentration of CCG-1423 (same as above) was 4.55 mg/mL (10 mM), then the adjusted cell aggregation promoter was added to the cell suspension so that the final concentration of CCG-1423 was 10 μM, and the cells were seeded at a ratio of 4 mL/well in a 6-well plate for suspension culture (Sumitomo Bakelite Co., Ltd.). The cell-seeded plate was subjected to a swirling culture on a rotary shaker (OPTIMA, Inc.) at a speed of 90 rpm along the horizontal plane to draw a circle with a swirling width (diameter) of 25 mm and cells were cultured in suspension under a condition at 5% CO2 and 37° C. […] While 208 cell aggregates in images obtained at Day 1 of culture being observed and compared using a micrograph scale, the width (referred to as “φ”) of the widest portion of each cell aggregate was measured, distribution thereof was examined, and average±standard deviation was calculated. The concentration of glucose contained in the culture supernatant collected at the time of culture medium exchange was measured with biosensor BF-5iD (Prince Measuring Equipment Co., Ltd.) to calculate glucose consumption.

[4] = tested on: human iPS cells (TkDN4-M cell lines); test: Number of dead cells, Cytotoxicity LDH Assay Kit-WST, Day 1 of suspension culture; details: 10 μM CCG-1423, 2.5 μM Y-27632, Day 1 of culture, FIG. 2
Procedure: Human iPS cells that had been cultured using the protocol of Example 1 were treated with Accutase for 3 to 5 minutes and were detached and dispersed to single cells. The resulting cells were suspended in Essential 8™ culture medium containing a final concentration of 5 mg/mL of BSA (Wako Pure Chemical Industries, Ltd.) and a final concentration of 2.5 μM of Y-27632 (Wako Pure Chemical Industries, Ltd.), and a portion thereof was stained with trypan blue and the number of cells was counted. The cell suspension was prepared so as to contain 2×10^5 cells per ml. Separately, the cell aggregation promoter was adjusted so that the final concentration of CCG-1423 (Cayman, 10010350) was 4.55 mg/mL (10 mM), then the adjusted cell aggregation promoter was added to the cell suspension so that the final concentration of CCG-1423 was 10 μM. Then the cells were seeded at a ratio of 1.3 mL/well in a 12-well plate for suspension culture (Sumitomo Bakelite Co., Ltd.). […]
At the next day after the start of culture (Day 1 of culture), images were obtained by phase contrast microscopy, and the number of dead cells was calculated with Cytotoxicity LDH Assay Kit-WST (Peer Chemistry Research Institute, Inc.).

[5] = tested on: human iPS cells (TkDN4-M cell lines); test: Cell aggregation assay, suspension culture, phase contrast microscopy at Day 1; details: 10 μM CCG-1423, 2.5 μM Y-27632, Day 1 of culture, 12-well plate, FIG. 1
Procedure: TkDN4-M cell lines (Institute of Medical Science, The University of Tokyo) were used as human iPS cells. Human iPS cells were seeded on cell culture dishes coated with Vitronectin (Thermo Fisher Scientific Co., Ltd.) and subjected to a maintenance culture using Essential 8™ (Thermo Fisher Scientific Co., Ltd.) as the culture medium. Accutase (Thermo Fisher Scientific Co., Ltd.) was used as a cell detachment agent during passage. In addition, when the cells were seeded, Y-27632 (Wako Pure Chemical Industries, Ltd.) at a concentration of 10 μM was added to a culture medium. The culture medium was changed every day. For experiments, human iPS cells (the number of passage was 50 or less) were used.
Human iPS cells that had been cultured using the protocol of Example 1 were treated with Accutase for 3 to 5 minutes and were detached and dispersed to single cells. The resulting cells were suspended in Essential 8™ culture medium containing a final concentration of 5 mg/mL of BSA (Wako Pure Chemical Industries, Ltd.) and a final concentration of 2.5 μM of Y-27632 (Wako Pure Chemical Industries, Ltd.), and a portion thereof was stained with trypan blue and the number of cells was counted. The cell suspension was prepared so as to contain 2×10^5 cells per ml. […]

[6] = tested on: human iPS cells (TkDN4-M cell lines); test: Percentage of cells positive for undifferentiation markers (SOX2, OCT4, Nanog), flow cytometry; details: Day 5 of culture, aggregates produced in medium comprising CCG-1423, FIG. 6
Procedure: In addition, at Day 5 of culture, cell aggregates were collected, dispersed with Accutase, and then suspended in Essential 8™ culture medium containing 5 mg/mL BSA. A portion of this cell suspension was stained with trypan blue and the number of cells was counted. After the above cell suspensions were centrifuged at 300 g for 3 minutes, the supernatant was then removed, and the cells were washed with PBS (phosphate buffered saline). Next, the cells were fixed with 4% paraformaldehyde (Wako Pure Chemical Industries, Ltd.) at room temperature for 20 minutes, then washed 3 times with PBS. After cells were resuspended with 300 μL of PBS, 3 mL of cold methanol was added while stirring with voltex, and permeabilized at −20° C. overnight or more. After 3 washes with 3% FBS (fetal bovine serum)/PBS, cells were resuspended with 3% FBS (fetal bovine serum)/PBS and blocked at room temperature for 30 minutes to 1 hour. Subsequently, the cells were stained with fluorescently labeled anti-SOX2 antibodies (Cat. No. 656110, BioLegend, Inc.) and fluorescently labeled anti-OCT4 antibodies (Cat. No. 653703, BioLegend, Inc.) and fluorescently labeled anti-Nanog antibodies (Cat. No. 674010, BioLegend, Inc.) at 4° C. for 30 minutes to 1 hour. After washed once with 3% FBS (fetal bovine serum)/PBS, the cells were made to pass through a cell strainer. The resulting cells were analyzed on FACSVerse. A control test was conducted using cells that were treated in the same way except for reacting, instead of the above three antibodies (fluorescently labeled anti-SOX2 antibody, fluorescently labeled anti-OCT4 antibody, fluorescently labeled anti-Nanog antibody), with three fluorescently labeled isotype control antibodies (Cat. No. 400129, Cat. No. 400314, Cat. No. 400136; BioLegend, Inc.) corresponding to each of the above three antibodies.

[7] = Day 1 of culture, 10 μM CCG-1423
[8] = size range 40- μm, Day 1 of culture
[9] = size range 60- μm, Day 1 of culture
[10] = size range 80- μm, Day 1 of culture
[11] = size range 100- μm, Day 1 of culture
[12] = size range 120- μm, Day 1 of culture
[13] = size range 140- μm, Day 1 of culture
[14] = size range 160- μm, Day 1 of culture
[15] = size range 180- μm, Day 1 of culture
[16] = size range 200- μm, Day 1 of culture
[17] = size range 220- μm, Day 1 of culture
[18] = size range 240- μm, Day 1 of culture
[19] = size range 260- μm, Day 1 of culture
[20] = size range 280- μm, Day 1 of culture
[21] = size range 300- μm, Day 1 of culture

## CC(ONC(=O)c1cc(C(F)(F)F)cc(C(F)(F)F)c1)C(=O)Nc1ccc(Cl)cc1 (stereo not drawn) [CCG-1423, N-[2-[4(4-chlorophenyl)amino]-1-methyl-2-oxoethoxy]-3,5-bis(trifluoromethyl)-benzamide]
[1]
  proliferation of the number of seeded cells (8×10^5 cells/well): approximately 8.5 fold
[2]; 10 μM CCG-1423, 6-well plate, FIG. 3
  cell aggregate formation after seeding to Day 1 of culture: cell aggregates were formed
[2]; 10 μM CCG-1423 until Day 1, then medium exchanged daily, Day 1 to Day 5, FIG. 3
  cell aggregates on continued culture to Day 5: cell aggregates were expanded
[2]; [7]
  percentage of cell aggregates with size (diameter) 60 μm or more and 300 μm or less: 99.5%
  percentage of cell aggregates with size (diameter) 80 μm or more and 300 μm or less: 98.5%
  percentage of cell aggregates with size (diameter) 100 μm or more and 300 μm or less: 98.5%
[2]; Day 1 of culture, 10 μM CCG-1423, 208 cell aggregates
  average±standard deviation of cell aggregate size (diameter): 171.3±22.8 μm
[2]; Day 1 of culture, 10 μM CCG-1423, to total cell aggregate count
  percentage of cell aggregates with size (diameter) 40 μm or more and 300 μm or less: 100%
[2]; [8]
  Number of cell aggregates by size: 1
  Percentage of cell aggregates by size: 0.5%
[2]; [9]
  Number of cell aggregates by size: 2
  Percentage of cell aggregates by size: 1.0%
[2]; [10]
  Number of cell aggregates by size: 0
  Percentage of cell aggregates by size: 0.0%
[2]; [11]
  Number of cell aggregates by size: 2
  Percentage of cell aggregates by size: 1.0%
[2]; [12]
  Number of cell aggregates by size: 6
  Percentage of cell aggregates by size: 2.9%
[2]; [13]
  Number of cell aggregates by size: 39
  Percentage of cell aggregates by size: 18.8%
[2]; [14]
  Number of cell aggregates by size: 87
  Percentage of cell aggregates by size: 41.8%
[2]; [15]
  Number of cell aggregates by size: 60
  Percentage of cell aggregates by size: 28.8%
[2]; [16]
  Number of cell aggregates by size: 9
  Percentage of cell aggregates by size: 4.3%
[2]; [17]
  Number of cell aggregates by size: 2
  Percentage of cell aggregates by size: 1.0%
[2]; [18]
  Number of cell aggregates by size: 0
  Percentage of cell aggregates by size: 0.0%
[2]; [19]
  Number of cell aggregates by size: 0
  Percentage of cell aggregates by size: 0.0%
[2]; [20]
  Number of cell aggregates by size: 0
  Percentage of cell aggregates by size: 0.0%
[2]; [21]
  Number of cell aggregates by size: 0
  Percentage of cell aggregates by size: 0.0%
[3]
  glucose consumption: increased daily
[4]
  number of dead cells compared to the control test (0 μM CCG-1423): reduced
[5]
  cell aggregation compared to the control test (0 μM CCG-1423): aggregation was promoted
[6]
  percentage of cells positive for Nanog: ≥ 99%
  percentage of cells positive for OCT4: ≥ 97%
  percentage of cells positive for SOX2: ≥ 99%
